Values quoted from earlier work as cited in US20160367500A1 (FERTILIFY INC., priority 2013, published 2016).
Where two headings read alike, the source gives them in different places.

How the values were obtained:
[1] = fortification of food with folic acid
[2] = tested on: mouse hepatocyte mitochondria
[3] = tested on: methylglyoxal-treated oocytes
[4] = tested on: anti-Müllerian hormone (AMH); conditions: women with sufficient levels of vitamin D
[5] = not given; remark: listed apart in the source
[6] = tested on: ROS-mediated embryo-toxicity in cultures; conditions: vitamin C and vitamin E together, ex-vivo murine models
[7] = diet deficient in vitamin D versus vitamin D sufficient diet (Halloran 1980)

COC1=C(OC)C(=O)C(C/C=C(\C)CC/C=C(\C)CC/C=C(\C)CC/C=C(\C)CC/C=C(\C)CC/C=C(\C)CC/C=C(\C)CC/C=C(\C)CC/C=C(\C)CCC=C(C)C)=C(C)C1=O [Coenzyme Q10, coenzyme Q10]
litter size (aged female mice; 52-week-old mice, versus control groups without coenzyme Q10): significantly larger litter sizes | number of ovulated eggs after stimulation (aged female mice; aged female mice): significantly increases the number of ovulated eggs | safely tolerable dose (in vivo): up to 1200 mg per day

Nc1nc2ncc(CNc3ccc(C(=O)N[C@@H](CCC(=O)O)C(=O)O)cc3)nc2c(=O)[nH]1 [Folic Acid, folic acid]
rate of neural-tube defects [1]: significant reduction in the rate of neural-tube defects

O=C(O)c1cc(C(=O)O)c2c(n1)C(=O)C(=O)c1cc(C(=O)O)[nH]c1-2 [PQQ, pyrroloquinoline quinone]
mitochondrial biogenesis ([2]; aging cells): promotes the spontaneous generation of new mitochondria within aging cells | protection from oxidative stress ([2]; mouse hepatocyte mitochondria): protects mouse hepatocyte mitochondria from oxidative stress | upper limit (in words) (adults over the age of 18): (no known upper limit)

Oc1ccc(C=Cc2cc(O)cc(O)c2)cc1 [Resveratrol, resveratrol]
adverse effects caused by methylglyoxal (inhibition of oocyte maturation, disruption of spindle assembly) [3]: can alleviate the adverse effects caused by methylglyoxal | excessive ROS production, aberrant mitochondrial distribution, high level lipid peroxidation ([3]; methylglyoxal-induced cytotoxic changes): can block these cytotoxic changes | DNA double strands breaks ([3]; methylglyoxal-treated oocytes): decreased

vitamin D
reduction of fertility (female rats; [7]): 75% | reduction of litter size (female rats; [7]): 30% | litter size (female rats; diet lacking vitamin D before mating versus diet containing vitamin D (Hickie 1983)): significantly smaller litters | AMH levels [4]: increased levels of anti-Müllerian hormone (AMH) | pregnancy rate per IVF cycle ([5]; women whose vitamin D levels were insufficient or deficient): 34.7% | pregnancy rate per IVF cycle ([5]; women with sufficient levels of vitamin D): 52.5%

vitamin E
IVF [6]: improved IVF | rate of embryo development [6]: increased the rate of embryo development | tolerable upper limit of intake (Health Canada Nutrition Tables (2013)): 1000 mg per day
